In one series the test system is Cryptosporidium parvum. Description: Cytopathic effect (CPE) based assay, C. parvum infected HCT-8 cells. Conditions: HCT-8 host cell viability (CellTiter-Glo), 48 hours treatment, read-out: Cp CPE EC50. In a few lines:
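HCT-8 cells were batch-infected with excysted C. parvum (Iowa isolate) oocysts at MOI 1:2 (host:parasite) for 3 h at 37 °C, then seeded and incubated 24 h before compound addition. Compounds were given as 3-fold dilution series (final DMSO <0.5%). Host-cell loss (cytopathic effect) was read as viability with CellTiter-Glo.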
Background: Damage to the host cells serves as the signal in cytopathic effect assays.

Series [1] is described as follows: Cytotoxicity against HepG2. Format: cell-based. To be noted: human, HepG2 cells (ATCC HB-8065), 5 days exposure. The gist of the method:
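Cells seeded at 10^5 per well, held 24 h at 37 °C, then exposed to two-fold serial dilutions of compound for 5 days. Viability read with Cell Proliferation Kit II (XTT); values reported as CC50.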

Consider `CCN(C(=O)c1ccn2ncc(-c3ccc(C(=O)NC)cc3)c2c1)c1ccc(C#N)cn1` [Example 90], for which the EC50 (commonly the concentration at which the effect is half-maximal) in the series on Cryptosporidium parvum came to 68 nM. For the same compound, the CC50 (as a rule, the concentration that lowers cell viability or growth by half) at 5 days in series [1] turned out to be 14800 nM.
On the same counts, the results for `CNC(=O)c1ccc(-c2cnn3ccc(C(=O)N(c4ccc(C#N)cn4)C(C)C)cc23)cc1` [Example 91] are 129 nM and 18700 nM.
In the same order, the values of `CNC(=O)c1ccc(-c2cnn3ccc(C(=O)N(NC)c4ccc(C#N)cc4)cc23)cn1` [Example 92] are 310 nM and 8520 nM.
Consider `CNC(=O)c1ccc(-c2cnn3ccc(N(C)C(=O)c4ccc(C#N)cn4)cc23)cc1` [Example 94], for which the EC50 with Cryptosporidium parvum amounted to 368 nM. The compound further gave a CC50 at 5 days in series [1] of 31200 nM.
On the same counts, the results for `CCN(C(=O)c1ccn2ncc(-c3ccc(C(=O)NC)cc3)c2c1)c1ccc(C(F)(F)F)cn1` [Example 96] are 50 nM and 7140 nM.
Turning to `CNC(=O)c1ccc(-c2cnn3ccc(C(=O)N(c4ccc(C#N)cn4)C4CCC4)cc23)cc1` [Example 112], in the series with Cryptosporidium parvum, the EC50 was determined as 270 nM. In addition, in series [1], the CC50 at 5 days stood at 5020 nM.
In the same order, the values of `N#Cc1ccc(N(C(=O)c2ccn3ncc(-c4ccc(C(N)=O)cc4)c3c2)C2CC2)nc1` [Example 120] are 172 nM and 23700 nM.
In the same order, the values of `CC(C)NC(=O)c1ccc(-c2cnn3ccc(C(=O)N(c4ccc(C#N)cn4)C4CC4)cc23)cc1` [Example 121] are 8640 nM and 33200 nM.
On the same counts, the results for `N#Cc1ccc(N(C(=O)c2ccn3ncc(-c4ccc(C(=O)NC5CC5)cc4)c3c2)C2CC2)nc1` [Example 123] are 2990 nM and 17200 nM.
For `CNC(=O)c1ccc(-c2cnn3ccc(C(=O)N(c4ccc(Cl)cn4)C4CC4)cc23)cc1` [Example 124], the EC50 with Cryptosporidium parvum is 103 nM. In series [1], this compound had a CC50 at 5 days of 21000 nM.
On the same counts, the results for `CCNC(=O)c1ccc(-c2cnn3ccc(C(=O)N(c4ccc(C#N)cn4)C4CC4)cc23)cc1` [Example 127] are 102 nM and 40200 nM.
In the same order, the values of `N#Cc1ccc(N(C(=O)c2ccn3ncc(-c4ccc(C(=O)NC5COC5)cc4)c3c2)C2CC2)nc1` [Example 131] are 2730 nM and over 50000 nM.
In the same order, the values of `CNC(=O)c1ccc(-c2cnn3ccc(C(=O)N(c4ccc(C#N)c(OC)n4)C4CC4)cc23)cc1` [Example 149] are 55 nM and 23300 nM.
Turning to `CCN(C(=O)c1ccn2ncc(-c3ccc(C(=O)NC)nc3)c2c1)c1ccc(C#N)cn1` [Example 150], the EC50 in the series on Cryptosporidium parvum was 1070 nM. This compound also had a CC50 at 5 days in series [1] of 9820 nM.
In the same order, the values of `CNC(=O)c1ccc(-c2cnn3ccc(C(=O)N(c4ccc(C(F)(F)F)cn4)C(C)C)cc23)cc1` [Example 153] are 39 nM and 20600 nM.
In the same order, the values of `CNC(=O)c1ccc(-c2cnn3ccc(C(=O)N(c4ccc(C(F)(F)F)cn4)C4CCC4)cc23)cc1` [Example 160] are 85 nM and 2090 nM.
